Experimental findings from patent publication US12186433B2, “Nanocapsules comprising modified nucleobases and/or nucleosides, hydrogels and oleogels comprising them and uses thereof” (UNIVERSITE D'ANGERS, priority 2017, dated 2025) are described below.

Data set [1] in a line: Cyt-C16 concentration in the hydrogels of LNCs by LC-MS/MS. The class given is physicochemical. As to conditions: LC-MS/MS recovery in hydrogels. The protocol: The Cyt-C16 concentrations in the hydrogels of LNCs were determined using a LC-MS/MS apparatus: Alliance® 295 system (Waters, Saint-Quentin-en-Yvelines, France) with a Zorbax—Eclipse XDB-C18 column 4.6×150 mm, 3.5 μm, (Agilent Technologies, Santa Clara, United States). The temperature was fixed to 25° C. The mobile phase consisted of methanol with formic acid 0.1% (v/v), at a flow rate of 0.8 mL·min^−1. The injection volume was 10 μL. The total HPLC effluent was directed into a Quattro Micro® triple quadrupole mass spectrometer (Waters Saint-Quentin-en-Yvelines, France). Ionization was achieved using turbo ion spray in positive ion mode. The mass spectrometer operated in multiple reactions monitoring (MRM) mode. The […] transitions for Cyt-C16 was 482>112 and 482>350. Cyt-C16 was diluted in methanol at concentration from 1.25 to 200 ng·mL^−1, in presence of non-loaded LNCs, for the calibration curve. A volume of 50 μL of hydrogels was dissolved with deionized water at 1:4000 (v/v), to obtain a complete dispersion of LNCs. Then, a volume of 100 μL was mixed with 900 μL of methanol. Quantification of Cyt-C16 was achieved after filtration of this solution on 0.22-μm filter.

Data set [2] relates to THP-1 cells. Kind of data set: Cellular toxicity, MTS assay, THP-1 cells. The class given is cell-based, human. The note with it: THP1 cell line, Cyt-C16 2.5% (w/wLabrafac) at the LNC surface. The protocol:
THP-1 cells (human monocyte/macrophage cell line obtained from ATCC, Manassas, VA, USA) were grown in suspension at 37° C., 90% humidity, 5% CO2 in RPMI 1640 medium, completed with decomplemented FBS (10% v/v), penicillin (100 UI·mL^−1), streptomycin ([…]), amphotericin B ([…]), HEPES 10 mM (1% v/v), Pyruvate Sodium 100 mM (1% v/v) and β-mercaptoethanol 20 μM (1% v/v). Cell differentiation was induced in the same medium by adding PMA 200 nM. A 48-h incubation allows the cells to adhere (15·10^3 cells/well in a 96-well cell culture dish). After medium aspiration to eliminate non-adhered cells, cells were washed again with fresh medium.
B6-KPC3 cells (pancreas tumor from transgenic KPC mice) (gift from the Department of Oncology and Surgical Sciences of Padova, Pr. Vincenzo Bronte), were grown in suspension at 37° C., 90% humidity, 5% CO2 in DMEM medium, completed with decomplemented FBS (10% v/v), penicillin (100 UI·mL^−1), streptomycin ([…]), amphotericin B ([…]), HEPES 10 mM (1% v/v), L-glutamin 2 mM (1% v/v), and β-mercaptoethanol 20 μM (1% v/v). […] The cytotoxicitiy of diluted LNCs (diameter 50 or 100 nm), non-loaded or loaded with Cyt-C16 2.5% (w/wLabrafac), in cell culture medium, was determined. […] The percentage of cell viability was calculated according to the following equation: […]
(In general: Tetrazolium dyes change colour on reduction, which living cells bring about.)

The subject of data set [3] is B6-KPC3 cells. Kind of data set: Cellular toxicity, MTS assay, B6-KPC3 cells. Type of data set: cell-based, mice. The note with it: B6-KPC3 cell line, Cyt-C16 2.5% (w/wLabrafac) at the LNC surface. The protocol: B6-KPC3 cells (pancreas tumor from transgenic KPC mice) (gift from the Department of Oncology and Surgical Sciences of Padova, Pr. Vincenzo Bronte), were grown in suspension at 37° C., 90% humidity, 5% CO2 in DMEM medium, completed with decomplemented FBS (10% v/v), penicillin (100 UI·mL^−1), streptomycin ([…]), amphotericin B ([…]), HEPES 10 mM (1% v/v), L-glutamin 2 mM (1% v/v), and β-mercaptoethanol 20 μM (1% v/v). The cells (3.5·10^3 cells/well in 200-μL medium) were then plated on a 96-well cell culture dish and left to grow for 48 h at 37° C. The cytotoxicitiy of diluted LNCs (diameter 50 or 100 nm), non-loaded or loaded with Cyt-C16 2.5% (w/wLabrafac), in cell culture medium, was determined. Fresh cell culture medium was used as controls. […] The number of living cells was determined using a MTS (3-(4,5-dimethylthiazol-2-yl)-5-(3-carboxymethoxyphenyl)-2-(4-sulfophenyl)-2H-tetrazolium salt) assay (colorimetric assay based on the conversion of a tetrazolium salt into formazan). Formazan absorbance was measured at 492 nm and 750 nm, directly from well plates using a spectrophotometer Multiscan Ascent® MP reader (Thermo Scientific, Courtaboeuf, France), after exposition to MTS (20 μL per well) for 2.5 h at 37° C. The percentage of cell viability was calculated according to the following equation: […]

The conditions of data set [4]: phase-inversion process.
Text: The LNCs formulation was based on a phase-inversion process, from oil-in-water emulsion at low temperature to water-in-oil emulsion at high temperature. The quantities of oil phase (Labrafac), aqueous phase (water and NaCl) and surfactants (Kolliphor and Span 80) for each formulation were precisely weighed. For 25 nm-diameter LNCs, mLabrafac=0.6 g, mKol=1.8 g, mSpan80=0.3 g, mWater=1.3 g and mNaCl=0.054 g; for 50 nm-diameter LNCs, mLabrafac=1.1168 g, mKol=0.9168 g, mSpan80=0.45 g, mWater=1.5168 g and mNaCl=0.054 g; for 75 nm-diameter LNCs, mLabrafac=1.8 g, mKol=1.3 g, mSpan80=0.3 g, mWater=0.6 g and mNaCl=0.054 g; for 100 nm-diameter LNCs, mLabrafac=1.8 g, mKol=0.95 g, mSpan80=0.3 g, mWater=0.95 g and mNaCl=0.054 g.
Then, Kolliphor and the aqueous phase were added and the mixture was heated to 75° C. under magnetic stirring followed by cooling to 45° C. (rate of 5° C.·min^−1). This cycle was repeated three times and during the last temperature decrease at the phase-inversion temperature (about 60° C.), an irreversible shock was induced by dilution with 2 mL of pure water. Afterwards, slow magnetic stirring was applied to the suspension of LNCs at room temperature, and a hydrogel was spontaneously formed. The gelation process was completed after 24 h at 4° C. Prior completed gelation, a part of the formulation was diluted by a factor of 60 (v/v) with pure water.
For data set [5] the following is noted: solubilized in Labrafac at 70° C., then cooling.
Experimental: Cyt-C16 was solubilized in Labrafac at 70° C. under magnetic stirring. […] The viscoelastic properties of the oleogels (Cyt-016 from 0.005 to 0.2 mmol·g^−1 of Labrafac, corresponding to Cyt-C16 from 0.25 to 9.95% (w/wLabrafac)), at 25° C. were measured using a Kinexus® rheometer (Malvern Instruments S.A., United Kingdom), with a plate plate geometry (diameter 20 mm, gap: 800 μm). The oleogels were deposited directly on the bottom plate geometry of the rheometer and the top plate geometry was placed in contact with the sample. Oscillatory strain sweeps at 1 Hz constant frequency were performed to determine the linear regime characterized by constant dynamic moduli (elastic: G′ and viscous: G″ moduli), independent of the strain amplitude. In this regime (0.01% constant shear strain), G′ and G′ were measured as a function of angular frequency (0.1 to 10 Hz). In addition, a temperature ramp from 25 to 70° C. (2° C.·min^−1) was performed at 0.01% constant shear strain and 1 Hz constant angular frequency. All these experiments were repeated in triplicate.

Take `CCCCCCCCCCCCCCCC(=O)Nc1ccn([C@@H]2O[C@H](CO)[C@@H](O)[C@H]2O)c(=O)n1` [Cyt-C16, 4-(N)-palmitoyl cytidine]: in data set [1], the “degradation of the molecule by the formulation process” value was “does not degrade”. For the same compound, the “additional cytotoxicity in comparison to native LNCs” value in data set [2] and in data set [3] was “does not cause additional cytoxicity” in each case. For the same compound, the “effect of adding Cyt-C16 to the LNC formulation process” value in data set [4] is listed as “the LNCs suspension turned into a hydrogel”. For the same compound, the “oil gelation of Labrafac after cooling” value in data set [5] was “led to the oil gelation after cooling”.
